Legend:
in vivo = details: female Balb/c mice, 10 mg/kg iv and po
Method: Assay 5: Oral Bioavailability and Pharmacokinetics in Mice
All work was performed in accordance with the Home Office regulations under the Animals (Scientific Procedures) Act 1986 and according to UKCCCR guidelines for animal experimentation.
CHK1 inhibitor compounds were formulated in 10% DMSO, 1% Tween 20 and 89% sterile saline. Female Balb/c mice (Charles River UK Ltd, Margate, U.K.) were administered intravenously (iv) and orally (po) with 10 mg/kg of CHK1 inhibitor compound. Control animals received the vehicle alone. Groups of 3 mice were injected per timepoint. At 5, 15 and 30 minutes and 1, 2, 4, 6 and 24 hours after dosing, blood was collected by cardiac puncture with heparinised syringes from mice under anaesthesia (halothane/oxygen mix). Following centrifugation (9000×g, 2 minutes, 4° C.) plasma was frozen on dry ice and stored at −80° C. Tissues were excised, snap frozen in liquid nitrogen and stored at −80° C. Thawed plasma samples were extracted by protein precipitation using 3 volumes of methanol containing internal standard. […]. After centrifugation, supernatant was transferred for analysis. Extracted plasma samples were analysed by LC-MS-MS on an Agilent 1200 or 1290 LC coupled to an Agilent 6410 triple quadrupole mass spectrometer for the quantitation of the CHK1 inhibitor compound and internal standard. […]

HT29 cells [1] = assay: Cellular potency in Mitosis Inhibition Assay (MIA), checkpoint abrogation after etoposide; format: cell-based; details: versus Y-154
Method: Assay 2: Cellular Potency in Mitosis Inhibition Assay (MIA)
Checkpoint abrogation by CHK1 kinase function inhibitors in combination with genotoxic agents was assessed using a europium based ELISA assay designed to quantify the number of cells trapped in mitosis after treatment with a genotoxic agent (to induce G2 arrest) followed by a CHK1 inhibitor test compound in combination with nocodazole to abrogate this arrest. HT29 cells were seeded at 10^4 cells per well into 96-well plates in a volume of 160 μL and left to attach for 36 hours. […] After genotoxic drug exposure, the medium was removed and replaced with fresh medium (160 μL). […] CHK1 inhibitor test compounds were added in 40 μL aliquots using quadruplicate wells for each concentration. After 21 hours exposure, the medium was removed and cells were fixed in 4% formaldehyde in phosphate buffered saline (PBS, pH 7.4, pre-cooled to 4° C.) for 30 minutes at 4° C., followed by 100% methanol (pre-cooled to −20° C.) for 10 minutes at ambient temperature. Wells were washed with PBS and blocked with 5% dried milk (Marvel) in Tris-buffered saline (TBS, pH 7.4) at 37° C. for 30 minutes. Each well was washed three times with water containing 0.1% Tween 20. […] Primary antibody was removed and wells were washed with water containing 0.1% Tween 20. […] Europium emissions were counted on a Wallac, Victor2 counter (Perkin-Elmer, Bucks UK).

CHK1 = CHK1 (Homo sapiens (Human), UniProt O14757); assay: CHK1 DELFIA assay as described in Collins et al., 2009a; format: biochemical
CHK1, sequence (O14757 whole entry): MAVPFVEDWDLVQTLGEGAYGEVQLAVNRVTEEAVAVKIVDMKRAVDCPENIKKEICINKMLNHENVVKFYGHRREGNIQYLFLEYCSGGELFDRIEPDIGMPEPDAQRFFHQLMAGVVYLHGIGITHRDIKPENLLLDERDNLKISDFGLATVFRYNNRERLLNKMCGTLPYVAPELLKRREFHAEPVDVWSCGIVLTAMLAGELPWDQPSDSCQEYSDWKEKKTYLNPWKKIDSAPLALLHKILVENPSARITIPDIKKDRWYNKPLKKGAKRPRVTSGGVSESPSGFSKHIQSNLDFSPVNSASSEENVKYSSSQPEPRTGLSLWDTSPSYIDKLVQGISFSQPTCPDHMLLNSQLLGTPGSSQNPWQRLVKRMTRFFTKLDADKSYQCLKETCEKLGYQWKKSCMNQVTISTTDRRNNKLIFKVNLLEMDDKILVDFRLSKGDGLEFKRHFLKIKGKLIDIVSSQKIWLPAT

HT29 cells [2] = assay: Selectivity in cells for CHK1-dependent checkpoint abrogation versus cytotoxicity (SRB IC50/MIA IC50); format: cell-based; details: SRB IC50/MIA IC50, both in HT29 cells
Method: Assay 3: Assessment of Selectivity in Cells for CHK1-Dependent Checkpoint Abrogation versus Cytotoxicity
Compound cytotoxicity was assessed using a 96 hour sulforhodamine B assay (SRB, Sigma catalog number S9012). HT29 or SW620 cells were seeded at 1.6 to 3.2×10^3 cells per well in 96-well plates in a volume of 160 μL medium and allowed to attach for 36 hours prior to treatment. […] Cells were incubated for 96 hours (four doublings) at 37° C. in a humidified 5% CO2 environment and then fixed and stained with SRB.
The Activity Index (AI), a measure of the selectivity of the CHK1 inhibitor test compounds for effecting CHK1-dependent checkpoint abrogation versus cytotoxicity was calculated from the ratio of the CHK1 inhibitor cytotoxicity IC50 versus the MIA IC50 (i.e., Al=CHK1 inhibitor SRB IC50/MIA IC50), both measured in HT29 cells.

HT29 cells [3] = assay: Cellular efficacy in combination with SN38 (SRB potentiation); format: cell-based; details: SRB IC50/Potentiation IC50, 96 hour, SN38 at its IC50
Method: Assay 4: Cellular Efficacy in HT29 or SW620 Colon Carcinoma Cells in Combination with SN38 or Gemcitabine
HT29 or SW620 cells were seeded at 1.6 to 3.2×10^3 cells per well in 96-well plates in a volume of 160 μL medium and allowed to attach for 36 hours prior to treatment.
The Potentiation Index (PI) was calculated as a measure of the ability of the CHK1 inhibitor to enhance SN38 or gemcitabine cytotoxicity and was defined as the ratio of the Cytotoxicity IC50 of the CHK1 inhibitor alone versus the Potentiation IC50 of the CHK1 inhibitor combined with the genotoxic (i.e., PI=CHK1 inhibitor SRB IC50/Potentiation IC50).

## N#Cc1cnc(Nc2cc(NC[C@H]3CNCCO3)c(C(F)(F)F)cn2)cn1 [Compound 1, 5-[[4-[[(2R)-Morpholin-2-yl]methylamino]-5-(trifluoromethyl)-2-pyridyl]amino]pyrazine-2-carbonitrile]
In vivo
  Oral Bioavailability in Mouse: 105%
In vivo; female, Balb/c, mouse, in vivo, 10 mg/kg
  bioavailability: 100%
HT29 cells [1]
  more potent than the next most potent compound (Y-154), MIA cellular potency: approximately 3 fold

## N#Cc1cnc(Nc2cc(NC[C@@H]3CNCCO3)c(C(F)(F)F)cn2)cn1 [Compound 2, 5-[[4-[[(2S)-Morpholin-2-yl]methylamino]-5-(trifluoromethyl)-2-pyridyl]amino]pyrazine-2-carbonitrile]
HT29 cells [1]
  more potent than the next most potent compound (Y-154), MIA cellular potency: ~5 fold

## N#Cc1cnc(Nc2cc(NCC3CNCCO3)c(C(=O)Nc3ccccc3)cn2)cn1 (stereo not shown) [Compound Y-102]
CHK1
  IC50: 20 nM
HT29 cells [2]
  Cellular Selectivity (Activity Index): 4.6 fold

## COCc1ccc(-c2cnc(Nc3cnc(C#N)cn3)cc2NC[C@@H]2CNCCO2)cc1 [Compound Y-148]
CHK1
  IC50: 13 nM
HT29 cells [2]
  Cellular Selectivity (Activity Index): 4.4 fold

## COCCOc1ccc(-c2cnc(Nc3cnc(C#N)cn3)cc2NC[C@@H]2CNCCO2)cc1 [Compound Y-149]
CHK1
  IC50: 10 nM
HT29 cells [2]
  Cellular Selectivity (Activity Index): 3.5 fold

## COCC#Cc1cnc(Nc2cnc(C#N)cn2)cc1NC[C@@H]1CNCCO1 [Compound Y-154]
CHK1
  IC50: 1 nM
HT29 cells [3]
  Cell Efficacy + SN38 in HT29 cells (Potentiation Index): 0.8 fold
HT29 cells [2]
  Cellular Selectivity (Activity Index): 9.0 fold

## COC(C)(C)C#Cc1cnc(Nc2cnc(C#N)cn2)cc1NC[C@@H]1CNCCO1 [Compound Y-155]
CHK1
  IC50: 5 nM
HT29 cells [3]
  Cell Efficacy + SN38 in HT29 cells (Potentiation Index): 0.9 fold

## COCc1ccc(-c2cnc(Nc3cnc(C#N)cn3)cc2NC[C@H]2CNCCO2)cc1 [Compound Y-156]
CHK1
  IC50: 10 nM
HT29 cells [3]
  Cell Efficacy + SN38 in HT29 cells (Potentiation Index): 1.6 fold
HT29 cells [2]
  Cellular Selectivity (Activity Index): 5.4 fold

## COCCOc1ccc(-c2cnc(Nc3cnc(C#N)cn3)cc2NC[C@H]2CNCCO2)cc1 [Compound Y-157]
CHK1
  IC50: 15 nM
HT29 cells [3]
  Cell Efficacy + SN38 in HT29 cells (Potentiation Index): 2 fold
HT29 cells [2]
  Cellular Selectivity (Activity Index): 6.3 fold

## COCCCc1cnc(Nc2cnc(C#N)cn2)cc1NC[C@H]1CNCCO1 [Compound Y-159]
CHK1
  IC50: 23 nM

— patent US9663503B2, “5-[[4-[[morpholin-2-yl]methylamino]-5-(trifluoromethyl)-2-pyridyl]amino]pyrazine-2-carbonitrile and therapeutic uses thereof” (priority 2012, dated 2017)
